This is an account of results in US11613527B2, “Enzyme inhibitors” (KalVista Pharmaceuticals Limited, priority 2019, dated 2023).

Structures are written as SMILES. pIC50: −log10 of the molar value. Values after ≈ are worked out from the molar mass of the structure shown.

Data set [1] can be described thus: Solubility after 24 hrs in Fasted State Simulated Intestinal Fluid (FaSSIF). Format: physicochemical. To be noted: Fasted State Simulated Intestinal Fluid (FaSSIF), thermodynamic from solid, 24 hrs at 37° C., nominal concentration 1 mg/mL (as free base). As to the method: Selected compounds were further screened for solubility in Fasted State Simulated Intestinal Fluid (FaSSIF).
Approximately 1 mg of test compound is accurately weighed into a 2 mL vial. Volumes of the FaSSIF solution (pre-heated to 37° C.) were added to a vial to give a nominal concentration of 1 mg/mL (as free base). The FaSSIF solution was prepared on the day of use. The samples were vortexed before being placed in a Titramax 1000 shaker for 24 hrs at 37° C. and approximately 500 rpm. The samples were transferred to eppendorf tubes and centrifuged at 15,000 g (r.c.f.) for 10 min at 37° C. and analysed for concentration of test compound by LCMS.

Another data set has as its target Human plasma kallikrein (Homo sapiens (Human), UniProt P03952). Kind of data set: Determination of the IC50 for plasma kallikrein (fluorogenic substrate H-DPro-Phe-Arg-AFC). The format is biochemical. The note with it: class symbols A-D, read-out: IC50 (human PKal). The method in brief: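 IC50 values come from initial rates, monitored as the change in absorbance at 410 nm, of residual enzyme activity. Test compound was present at various concentrations with the fluorogenic substrate H-DPro-Phe-Arg-AFC, and the reaction was run at 25° C.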

For the next data set, the target named is Human KLK1 (Homo sapiens (Human), UniProt P06870). In words: Determination of the IC50 for KLK1 (fluorogenic substrate H-DVal-Leu-Arg-AFC). The format is biochemical. The method in brief:
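Inhibition read as initial rate via optical absorbance change at 410 nm, giving IC50. Reactions combined human KLK1, the substrate H-DVal-Leu-Arg-AFC and varied compound concentrations at 25° C.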

The target in a further data set is Human FXIa (Homo sapiens (Human), UniProt P03951). In words: Determination of the % inhibition for FXIa (fluorogenic substrate Z-Gly-Pro-Arg-AFC; 40 μM or IC50). The format is biochemical. The method in brief: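 Inhibition measured from initial reaction rate, followed as absorbance change at 410 nm, with substrate Z-Gly-Pro-Arg-AFC at 25 °C. Compound tested at a single 40 μM dose for percent inhibition, or across several concentrations to derive IC50 against human FXIa.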
Human FXIa, sequence (P03951 388-625): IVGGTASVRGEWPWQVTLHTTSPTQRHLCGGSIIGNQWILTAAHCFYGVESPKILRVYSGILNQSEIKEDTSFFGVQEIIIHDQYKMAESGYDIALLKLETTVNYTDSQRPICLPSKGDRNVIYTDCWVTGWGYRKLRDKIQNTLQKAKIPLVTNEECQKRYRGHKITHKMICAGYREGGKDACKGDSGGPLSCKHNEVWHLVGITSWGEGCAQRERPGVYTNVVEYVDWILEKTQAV
Human FXIa, sequence (P03951 19-387 partner): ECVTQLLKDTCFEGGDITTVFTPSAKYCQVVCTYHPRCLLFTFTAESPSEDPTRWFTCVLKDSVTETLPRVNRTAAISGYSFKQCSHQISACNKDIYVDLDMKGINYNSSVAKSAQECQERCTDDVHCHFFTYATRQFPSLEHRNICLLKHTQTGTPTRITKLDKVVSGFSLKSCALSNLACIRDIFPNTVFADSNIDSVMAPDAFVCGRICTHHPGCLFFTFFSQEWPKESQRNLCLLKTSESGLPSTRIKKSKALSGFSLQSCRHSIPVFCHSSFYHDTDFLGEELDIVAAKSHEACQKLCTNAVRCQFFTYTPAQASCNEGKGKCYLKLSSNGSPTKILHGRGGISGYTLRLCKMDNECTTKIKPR

Human KLK1, sequence (P06870 25-262): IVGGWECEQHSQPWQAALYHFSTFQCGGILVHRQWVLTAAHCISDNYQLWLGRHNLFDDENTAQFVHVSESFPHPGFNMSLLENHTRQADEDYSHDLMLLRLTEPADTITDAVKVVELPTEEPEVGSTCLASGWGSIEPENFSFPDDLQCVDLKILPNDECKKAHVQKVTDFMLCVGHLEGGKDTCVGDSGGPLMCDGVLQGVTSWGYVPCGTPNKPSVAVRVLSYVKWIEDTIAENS
Human plasma kallikrein, sequence (P03952 391-638): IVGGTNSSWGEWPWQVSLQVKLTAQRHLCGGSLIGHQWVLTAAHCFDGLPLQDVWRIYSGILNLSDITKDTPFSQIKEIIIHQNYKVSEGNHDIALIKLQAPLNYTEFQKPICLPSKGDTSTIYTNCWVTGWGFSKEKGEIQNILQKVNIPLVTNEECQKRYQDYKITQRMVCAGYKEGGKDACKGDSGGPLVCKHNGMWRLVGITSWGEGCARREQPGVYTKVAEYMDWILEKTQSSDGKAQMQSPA
Human plasma kallikrein, sequence (P03952 20-390 partner): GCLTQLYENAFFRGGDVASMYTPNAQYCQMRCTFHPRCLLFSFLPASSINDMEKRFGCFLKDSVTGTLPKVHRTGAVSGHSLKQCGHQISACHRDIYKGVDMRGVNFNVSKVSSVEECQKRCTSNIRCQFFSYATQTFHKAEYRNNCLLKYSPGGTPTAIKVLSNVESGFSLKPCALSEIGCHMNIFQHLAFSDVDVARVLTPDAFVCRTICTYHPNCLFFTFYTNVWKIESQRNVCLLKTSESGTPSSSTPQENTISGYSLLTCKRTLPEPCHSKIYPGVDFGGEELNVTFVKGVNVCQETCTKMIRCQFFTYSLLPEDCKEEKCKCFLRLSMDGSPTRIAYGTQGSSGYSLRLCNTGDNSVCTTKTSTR

In the case of `COCc1nn(Cc2ccc3c(c2)CCN(C(C)C)CC3)cc1C(=O)NCc1c(-n2cc(C)nn2)ccc(OC)c1F` [Example 122, N-{[2-fluoro-3-methoxy-6-(4-methyl-1,2,3-triazol-1-yl)phenyl]methyl}-1-[(3-isopropyl-1,2,4,5-tetrahydro-3-benzazepin-7-yl)methyl]-3-(methoxymethyl)pyrazole-4-carboxamide], in data set [1], the concentration in solution (solubility at 24 h) came to 730 µg/mL (≈ 1270 µM). Also, the pIC50 (as a rule, −log10 of the IC50, conventionally taken in molar units) at Human plasma kallikrein was over 8.00; at Human KLK1, under 4.40; on Human FXIa, under 4.40.

As to `COc1ccc(-n2cc(C)nn2)c(CNC(=O)c2cn(Cc3cc4n(n3)CCN(C)C4)nc2C(F)(F)F)c1F` [Example 125, N-{[2-fluoro-3-methoxy-6-(4-methyl-1,2,3-triazol-1-yl)phenyl]methyl}-1-({5-methyl-4H,6H,7H-pyrazolo[1,5-a]pyrazin-2-yl}methyl)-3-(trifluoromethyl)pyrazole-4-carboxamide], the solubility (commonly the dissolved amount per volume that the medium holds) at 24 h in data set [1] is 650 µg/mL (≈ 1190 µM). The figures for the negative logarithm of the IC50 (pIC50) at Human plasma kallikrein, against Human KLK1 and against Human FXIa were over 8.00, under 4.40 and under 4.40, respectively.

Molecule `COCc1nn(Cc2ccc3c(c2)COCC3)cc1C(=O)NCc1c(-n2cc(C)nn2)ccc(OC)c1F` [Example 133, 1-(3,4-dihydro-1H-2-benzopyran-7-ylmethyl)-N-{[2-fluoro-3-methoxy-6-(4-methyl-1,2,3-triazol-1-yl)phenyl]methyl}-3-(methoxymethyl)pyrazole-4-carboxamide] displayed a solubility at 24 h in data set [1] of 50 µg/mL (≈ 96 µM). Moreover, the pIC50 at Human plasma kallikrein was 6.00 to 7.00; on Human KLK1, under 4.40; on Human FXIa, under 4.40.

`COc1ccc(-n2cc(C)nn2)c(CNC(=O)c2cn(Cc3cc4n(n3)CCN(C)C4)nc2C(F)F)c1F` [Example 136, 3-(difluoromethyl)-N-{[2-fluoro-3-methoxy-6-(4-methyl-1,2,3-triazol-1-yl)phenyl]methyl}-1-({5-methyl-4H,6H,7H-pyrazolo[1,5-a]pyrazin-2-yl}methyl)pyrazole-4-carboxamide] returned a solubility at 24 h in data set [1] of 730 µg/mL (≈ 1380 µM). Further, the pIC50 was over 8.00 on Human plasma kallikrein, under 4.40 against Human KLK1 and under 4.40 against Human FXIa.

For `COc1ccc(-n2cc(C)nn2)c(CNC(=O)c2cn(Cc3cnc4c(c3)CCN(C)C4)nc2C(F)F)c1F` [Example 137, 3-(difluoromethyl)-N-{[2-fluoro-3-methoxy-6-(4-methyl-1,2,3-triazol-1-yl)phenyl]methyl}-1-[(7-methyl-6,8-dihydro-5H-1,7-naphthyridin-3-yl)methyl]pyrazole-4-carboxamide], the solubility at 24 h in data set [1] is 810 µg/mL (≈ 1500 µM). Moreover, the pIC50 was over 8.00 at Human plasma kallikrein, under 4.40 against Human KLK1 and 4.66 at Human FXIa.

As to `COc1ccc(-n2cc(C)nn2)c(CNC(=O)c2cn(Cc3ccc4c(n3)CCN(C)C4)nc2C(F)(F)F)c1F` [Example 138, N-{[2-fluoro-3-methoxy-6-(4-methyl-1,2,3-triazol-1-yl)phenyl]methyl}-1-[(6-methyl-7,8-dihydro-5H-1,6-naphthyridin-2-yl)methyl]-3-(trifluoromethyl)pyrazole-4-carboxamide], the solubility at 24 h in data set [1] was over 1000 µg/mL. Besides, the results for the pIC50 at Human plasma kallikrein, on Human KLK1 and against Human FXIa were 7.52 to 8.00, under 4.40 and under 4.40, respectively.

In turn, `COCc1nc(C(=O)NCc2c(-n3cc(C)nn3)ccc(OC)c2F)cn1Cc1ccc2c(c1)CN(C(C)C)C2` [Example 147, N-{[2-fluoro-3-methoxy-6-(4-methyl-1,2,3-triazol-1-yl)phenyl]methyl}-1-[(2-isopropyl-1,3-dihydroisoindol-5-yl)methyl]-2-(methoxymethyl)imidazole-4-carboxamide] returned a solubility at 24 h in data set [1] of over 1000 µg/mL. Moreover, the pIC50 is 7.52 to 8.00 on Human plasma kallikrein, under 4.40 against Human KLK1 and under 4.40 against Human FXIa.

`COCc1nc(C(=O)NCc2c(-n3cc(C)nn3)ccc(OC)c2F)cn1Cc1ccc2c(c1)CN(C)CC2` [Example 148, N-{[2-fluoro-3-methoxy-6-(4-methyl-1,2,3-triazol-1-yl)phenyl]methyl}-2-(methoxymethyl)-1-[(2-methyl-3,4-dihydro-1H-isoquinolin-7-yl)methyl]imidazole-4-carboxamide] displayed a solubility at 24 h in data set [1] of over 1000 µg/mL. The pIC50 at Human plasma kallikrein was 7.52 to 8.00; at Human KLK1 it was under 4.40; at Human FXIa it was under 4.40.

`COc1ccc(-n2cc(C)nn2)c(CNC(=O)c2cn(Cc3ccc4c(c3)CN(C)CC4)c(C3CC3)n2)c1F` [Example 149, 2-cyclopropyl-N-{[2-fluoro-3-methoxy-6-(4-methyl-1,2,3-triazol-1-yl)phenyl]methyl}-1-[(2-methyl-3,4-dihydro-1H-isoquinolin-7-yl)methyl]imidazole-4-carboxamide] returned a solubility at 24 h in data set [1] of 910 µg/mL (≈ 1720 µM). Moreover, the results for the pIC50 on Human plasma kallikrein, on Human KLK1 and at Human FXIa were 7.52 to 8.00, under 4.40 and under 4.40, respectively.

The molecule `COc1ccc(-n2cc(C)nn2)c(CNC(=O)c2cn(Cc3ccc4c(c3)CN(C)CC4)c(C)n2)c1F` [Example 151, N-{[2-fluoro-3-methoxy-6-(4-methyl-1,2,3-triazol-1-yl)phenyl]methyl}-2-methyl-1-[(2-methyl-3,4-dihydro-1H-isoquinolin-7-yl)methyl]imidazole-4-carboxamide] came in with a solubility at 24 h in data set [1] of 750 µg/mL (≈ 1490 µM). Further, the pIC50 at Human plasma kallikrein was 7.52 to 8.00; at Human KLK1, under 4.40; at Human FXIa, under 4.40.

In data set [1], `COc1ccc(-n2cc(C)nn2)c(CNC(=O)c2cn(Cc3ccc4c(c3)CN(C)CC4)nn2)c1F` [Example 152, N-{[2-fluoro-3-methoxy-6-(4-methyl-1,2,3-triazol-1-yl)phenyl]methyl}-1-[(2-methyl-3,4-dihydro-1H-isoquinolin-7-yl)methyl]-1,2,3-triazole-4-carboxamide] yielded a solubility at 24 h of 1000 µg/mL (≈ 2040 µM). Besides, the pIC50 at Human plasma kallikrein is over 8.00; at Human KLK1, under 4.40; against Human FXIa, under 4.40.

On to `COc1ccc(-n2cc(C)nn2)c(CNC(=O)c2cn(Cc3ccc4c(c3)CN(C(C)C)C4)nn2)c1F` [Example 153, N-{[2-fluoro-3-methoxy-6-(4-methyl-1,2,3-triazol-1-yl)phenyl]methyl}-1-[(2-isopropyl-1,3-dihydroisoindol-5-yl)methyl]-1,2,3-triazole-4-carboxamide], for which the solubility at 24 h in data set [1] is 950 µg/mL (≈ 1880 µM). Besides, the pIC50 was over 8.00 at Human plasma kallikrein, under 4.40 on Human KLK1 and under 4.40 at Human FXIa.

As to `COCc1nn(Cc2ccc3c(c2)CN(C)CC3)cc1C(=O)NCc1c(-n2cnc(C(F)F)n2)ccc(OC)c1Cl` [Example 156, N-({2-chloro-6-[3-(difluoromethyl)-1,2,4-triazol-1-yl]-3-methoxyphenyl}methyl)-3-(methoxymethyl)-1-[(2-methyl-3,4-dihydro-1H-isoquinolin-7-yl)methyl]pyrazole-4-carboxamide], the solubility at 24 h in data set [1] is over 1000 µg/mL. For the same molecule, the negative logarithm of the IC50 (pIC50) is over 8.00 on Human plasma kallikrein, under 4.40 against Human KLK1 and under 4.40 against Human FXIa.

In the case of `COc1ccc(-n2cc(C)nn2)c(CNC(=O)c2ccc(=O)n(Cc3ccc4c(c3)CN(C)CC4)c2)c1F` [Example 160, N-{[2-fluoro-3-methoxy-6-(4-methyl-1,2,3-triazol-1-yl)phenyl]methyl}-1-[(2-methyl-3,4-dihydro-1H-isoquinolin-7-yl)methyl]-6-oxopyridine-3-carboxamide], the concentration in solution in data set [1] (solubility at 24 h) came to 820 µg/mL (≈ 1590 µM). For the same molecule, the results for the negative logarithm of the IC50 (pIC50) on Human plasma kallikrein, on Human KLK1 and at Human FXIa were over 8.00, under 4.40 and under 4.40, respectively.
